Assay results as given in paper PMC10905675, “INX-315, a Selective CDK2 Inhibitor, Induces Cell Cycle Arrest and Senescence in Solid Tumors” (Cancer Discovery, 2023).

How the values were obtained:
Assay in all cases: SelectScreen LanthaScreen Binding
Conditions in all cases: INX-0315 at 100nM
MAP3K5 (ASK1) = biological target: T1, MAP3K5 (ASK1) (Homo sapiens, UniProt Q99683)
T1 construct: purchased Thermo Fisher Scientific SelectScreen (plus Nanosyn / Reaction Biology for CDK/cyclin lines)
Procedure, shortened: (§1)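 Screening in two stages: one concentration of inhibitor (100 nmol/L; 1% DMSO), then a ten-point series from 1 µmol/L to 0.0495 nmol/L. Conditions were those fixed in advance by the provider.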

MERTK (cMER) A708S = biological target: T2, MERTK (cMER) A708S (Homo sapiens, UniProt Q12866, A708S)
T2 construct: purchased Thermo Fisher Scientific SelectScreen (plus Nanosyn / Reaction Biology for CDK/cyclin lines)
Procedure, shortened: as §1

MLK4 = biological target: T3, MLK4 (Homo sapiens, UniProt Q5TCX8)
T3 construct: purchased Thermo Fisher Scientific SelectScreen (plus Nanosyn / Reaction Biology for CDK/cyclin lines)
Procedure, shortened: as §1

AXL R499C = biological target: T4, AXL R499C (Homo sapiens, UniProt P30530, R499C)
T4 construct: purchased Thermo Fisher Scientific SelectScreen (plus Nanosyn / Reaction Biology for CDK/cyclin lines)
Procedure, shortened: as §1

SLK = biological target: T5, SLK (Homo sapiens, UniProt Q9H2G2)
T5 construct: purchased Thermo Fisher Scientific SelectScreen (plus Nanosyn / Reaction Biology for CDK/cyclin lines)
Procedure, shortened: as §1

DYRK2 = biological target: T6, DYRK2 (Homo sapiens, UniProt Q92630)
T6 construct: purchased Thermo Fisher Scientific SelectScreen (plus Nanosyn / Reaction Biology for CDK/cyclin lines)
Procedure, shortened: as §1

MYO3A (MYO3 alpha) = biological target: T7, MYO3A (MYO3 alpha) (Homo sapiens, UniProt Q8NEV4)
T7 construct: purchased Thermo Fisher Scientific SelectScreen (plus Nanosyn / Reaction Biology for CDK/cyclin lines)
Procedure, shortened: as §1

STK33 = biological target: T8, STK33 (Homo sapiens, UniProt Q9BYT3)
T8 construct: purchased Thermo Fisher Scientific SelectScreen (plus Nanosyn / Reaction Biology for CDK/cyclin lines)
Procedure, shortened: as §1

MAPK15 (ERK7) = biological target: T9, MAPK15 (ERK7) (Homo sapiens, UniProt Q8TD08)
T9 construct: purchased Thermo Fisher Scientific SelectScreen (plus Nanosyn / Reaction Biology for CDK/cyclin lines)
Procedure, shortened: as §1

TNK2 (ACK) = biological target: T10, TNK2 (ACK) (Homo sapiens, UniProt Q07912)
T10 construct: purchased Thermo Fisher Scientific SelectScreen (plus Nanosyn / Reaction Biology for CDK/cyclin lines)
Procedure, shortened: as §1

DDR1 = biological target: T11, DDR1 (Homo sapiens, UniProt Q08345)
T11 construct: purchased Thermo Fisher Scientific SelectScreen (plus Nanosyn / Reaction Biology for CDK/cyclin lines)
Procedure, shortened: as §1

TGFBR2 = biological target: T12, TGFBR2 (Homo sapiens, UniProt P37173)
T12 construct: purchased Thermo Fisher Scientific SelectScreen (plus Nanosyn / Reaction Biology for CDK/cyclin lines)
Procedure, shortened: as §1

MAP4K1 (HPK1) = biological target: T13, MAP4K1 (HPK1) (Homo sapiens, UniProt Q92918)
T13 construct: purchased Thermo Fisher Scientific SelectScreen (plus Nanosyn / Reaction Biology for CDK/cyclin lines)
Procedure, shortened: as §1

LIMK1 = biological target: T14, LIMK1 (Homo sapiens, UniProt P53667)
T14 construct: purchased Thermo Fisher Scientific SelectScreen (plus Nanosyn / Reaction Biology for CDK/cyclin lines)
Procedure, shortened: as §1

WEE1 = biological target: T15, WEE1 (Homo sapiens, UniProt P30291)
T15 construct: purchased Thermo Fisher Scientific SelectScreen (plus Nanosyn / Reaction Biology for CDK/cyclin lines)
Procedure, shortened: as §1

STK38L (NDR2) = biological target: T16, STK38L (NDR2) (Homo sapiens, UniProt Q9Y2H1)
T16 construct: purchased Thermo Fisher Scientific SelectScreen (plus Nanosyn / Reaction Biology for CDK/cyclin lines)
Procedure, shortened: as §1

ANKK1 = biological target: T17, ANKK1 (Homo sapiens, UniProt Q8NFD2)
T17 construct: purchased Thermo Fisher Scientific SelectScreen (plus Nanosyn / Reaction Biology for CDK/cyclin lines)
Procedure, shortened: as §1

MAP2K6 (MKK6) = biological target: T18, MAP2K6 (MKK6) (Homo sapiens, UniProt P52564)
T18 construct: purchased Thermo Fisher Scientific SelectScreen (plus Nanosyn / Reaction Biology for CDK/cyclin lines)
Procedure, shortened: as §1

LATS2 = biological target: T19, LATS2 (Homo sapiens, UniProt Q9NRM7)
T19 construct: purchased Thermo Fisher Scientific SelectScreen (plus Nanosyn / Reaction Biology for CDK/cyclin lines)
Procedure, shortened: as §1

VRK2 = biological target: T20, VRK2 (Homo sapiens, UniProt Q86Y07)
T20 construct: purchased Thermo Fisher Scientific SelectScreen (plus Nanosyn / Reaction Biology for CDK/cyclin lines)
Procedure, shortened: as §1

MAP3K14 (NIK) = biological target: T21, MAP3K14 (NIK) (Homo sapiens, UniProt Q99558)
T21 construct: purchased Thermo Fisher Scientific SelectScreen (plus Nanosyn / Reaction Biology for CDK/cyclin lines)
Procedure, shortened: as §1

ACVR1 (ALK2) R206H = biological target: T22, ACVR1 (ALK2) R206H (Homo sapiens, UniProt Q04771, R206H)
T22 construct: purchased Thermo Fisher Scientific SelectScreen (plus Nanosyn / Reaction Biology for CDK/cyclin lines)
Procedure, shortened: as §1

RET M918T = biological target: T23, RET M918T (Homo sapiens, UniProt P07949, M918T)
T23 construct: purchased Thermo Fisher Scientific SelectScreen (plus Nanosyn / Reaction Biology for CDK/cyclin lines)
Procedure, shortened: as §1

RAF1 (cRAF) Y340D Y341D = biological target: T24, RAF1 (cRAF) Y340D Y341D (Homo sapiens, UniProt P04049, Y340D/Y341D)
T24 construct: purchased Thermo Fisher Scientific SelectScreen (plus Nanosyn / Reaction Biology for CDK/cyclin lines)
Procedure, shortened: as §1

RIPK2 = biological target: T25, RIPK2 (Homo sapiens, UniProt O43353)
T25 construct: purchased Thermo Fisher Scientific SelectScreen (plus Nanosyn / Reaction Biology for CDK/cyclin lines)
Procedure, shortened: as §1

TLK2 = biological target: T26, TLK2 (Homo sapiens, UniProt Q86UE8)
T26 construct: purchased Thermo Fisher Scientific SelectScreen (plus Nanosyn / Reaction Biology for CDK/cyclin lines)
Procedure, shortened: as §1

ABL1 Q252H = biological target: T27, ABL1 Q252H (Homo sapiens, UniProt P00519, Q252H)
T27 construct: purchased Thermo Fisher Scientific SelectScreen (plus Nanosyn / Reaction Biology for CDK/cyclin lines)
Procedure, shortened: as §1

KIT Y823D = biological target: T28, KIT Y823D (Homo sapiens, UniProt P10721, Y823D)
T28 construct: purchased Thermo Fisher Scientific SelectScreen (plus Nanosyn / Reaction Biology for CDK/cyclin lines)
Procedure, shortened: as §1

STK32B (YANK2) = biological target: T29, STK32B (YANK2) (Homo sapiens, UniProt Q9NY57)
T29 construct: purchased Thermo Fisher Scientific SelectScreen (plus Nanosyn / Reaction Biology for CDK/cyclin lines)
Procedure, shortened: as §1

FGFR1 V561M = biological target: T30, FGFR1 V561M (Homo sapiens, UniProt P11362, V561M)
T30 construct: purchased Thermo Fisher Scientific SelectScreen (plus Nanosyn / Reaction Biology for CDK/cyclin lines)
Procedure, shortened: as §1

CDK13/cyclin K = biological target: T31, CDK13/cyclin K (Homo sapiens, UniProt Q14004)
T31 construct: purchased Thermo Fisher Scientific SelectScreen (plus Nanosyn / Reaction Biology for CDK/cyclin lines)
Procedure, shortened: as §1

EGFR (ErbB1) d746-750 = biological target: T32, EGFR (ErbB1) d746-750 (Homo sapiens, UniProt P00533, DEL746-750)
T32 construct: purchased Thermo Fisher Scientific SelectScreen (plus Nanosyn / Reaction Biology for CDK/cyclin lines)
Procedure, shortened: as §1

MAPK9 (JNK2) = biological target: T33, MAPK9 (JNK2) (Homo sapiens, UniProt P45984)
T33 construct: purchased Thermo Fisher Scientific SelectScreen (plus Nanosyn / Reaction Biology for CDK/cyclin lines)
Procedure, shortened: as §1

STK39 (STLK3) = biological target: T34, STK39 (STLK3) (Homo sapiens, UniProt Q9UEW8)
T34 construct: purchased Thermo Fisher Scientific SelectScreen (plus Nanosyn / Reaction Biology for CDK/cyclin lines)
Procedure, shortened: as §1

AMPK (A1/B1/G2) = biological target: T35, AMPK (A1/B1/G2) (Homo sapiens, UniProt Q13131)
T35 construct: purchased Thermo Fisher Scientific SelectScreen (plus Nanosyn / Reaction Biology for CDK/cyclin lines)
Procedure, shortened: as §1

BMPR1A (ALK3) = biological target: T36, BMPR1A (ALK3) (Homo sapiens, UniProt P36894)
T36 construct: purchased Thermo Fisher Scientific SelectScreen (plus Nanosyn / Reaction Biology for CDK/cyclin lines)
Procedure, shortened: as §1

KIT V559D T670I = biological target: T37, KIT V559D T670I (Homo sapiens, UniProt P10721, T670I/V559D)
T37 construct: purchased Thermo Fisher Scientific SelectScreen (plus Nanosyn / Reaction Biology for CDK/cyclin lines)
Procedure, shortened: as §1

T18 sequence (P52564 whole entry): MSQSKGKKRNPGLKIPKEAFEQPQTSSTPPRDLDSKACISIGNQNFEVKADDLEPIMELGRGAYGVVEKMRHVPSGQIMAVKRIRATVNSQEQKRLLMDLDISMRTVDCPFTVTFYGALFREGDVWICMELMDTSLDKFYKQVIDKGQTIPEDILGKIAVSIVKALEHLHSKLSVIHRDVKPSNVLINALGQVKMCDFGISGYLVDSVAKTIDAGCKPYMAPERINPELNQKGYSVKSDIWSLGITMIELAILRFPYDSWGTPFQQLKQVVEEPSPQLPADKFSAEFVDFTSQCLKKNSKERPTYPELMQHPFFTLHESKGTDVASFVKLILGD
T29 sequence (Q9NY57 whole entry): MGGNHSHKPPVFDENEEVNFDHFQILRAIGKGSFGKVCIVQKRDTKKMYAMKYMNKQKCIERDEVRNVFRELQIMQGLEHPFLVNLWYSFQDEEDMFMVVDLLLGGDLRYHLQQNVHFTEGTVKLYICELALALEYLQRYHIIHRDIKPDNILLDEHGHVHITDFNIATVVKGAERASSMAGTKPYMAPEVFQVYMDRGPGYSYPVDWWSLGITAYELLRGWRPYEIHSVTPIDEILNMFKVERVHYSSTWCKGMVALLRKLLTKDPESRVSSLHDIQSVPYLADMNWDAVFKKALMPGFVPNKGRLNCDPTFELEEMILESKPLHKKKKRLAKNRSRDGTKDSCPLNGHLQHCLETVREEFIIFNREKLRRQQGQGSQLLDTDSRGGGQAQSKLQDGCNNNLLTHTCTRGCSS
T7 sequence (Q8NEV4 whole entry): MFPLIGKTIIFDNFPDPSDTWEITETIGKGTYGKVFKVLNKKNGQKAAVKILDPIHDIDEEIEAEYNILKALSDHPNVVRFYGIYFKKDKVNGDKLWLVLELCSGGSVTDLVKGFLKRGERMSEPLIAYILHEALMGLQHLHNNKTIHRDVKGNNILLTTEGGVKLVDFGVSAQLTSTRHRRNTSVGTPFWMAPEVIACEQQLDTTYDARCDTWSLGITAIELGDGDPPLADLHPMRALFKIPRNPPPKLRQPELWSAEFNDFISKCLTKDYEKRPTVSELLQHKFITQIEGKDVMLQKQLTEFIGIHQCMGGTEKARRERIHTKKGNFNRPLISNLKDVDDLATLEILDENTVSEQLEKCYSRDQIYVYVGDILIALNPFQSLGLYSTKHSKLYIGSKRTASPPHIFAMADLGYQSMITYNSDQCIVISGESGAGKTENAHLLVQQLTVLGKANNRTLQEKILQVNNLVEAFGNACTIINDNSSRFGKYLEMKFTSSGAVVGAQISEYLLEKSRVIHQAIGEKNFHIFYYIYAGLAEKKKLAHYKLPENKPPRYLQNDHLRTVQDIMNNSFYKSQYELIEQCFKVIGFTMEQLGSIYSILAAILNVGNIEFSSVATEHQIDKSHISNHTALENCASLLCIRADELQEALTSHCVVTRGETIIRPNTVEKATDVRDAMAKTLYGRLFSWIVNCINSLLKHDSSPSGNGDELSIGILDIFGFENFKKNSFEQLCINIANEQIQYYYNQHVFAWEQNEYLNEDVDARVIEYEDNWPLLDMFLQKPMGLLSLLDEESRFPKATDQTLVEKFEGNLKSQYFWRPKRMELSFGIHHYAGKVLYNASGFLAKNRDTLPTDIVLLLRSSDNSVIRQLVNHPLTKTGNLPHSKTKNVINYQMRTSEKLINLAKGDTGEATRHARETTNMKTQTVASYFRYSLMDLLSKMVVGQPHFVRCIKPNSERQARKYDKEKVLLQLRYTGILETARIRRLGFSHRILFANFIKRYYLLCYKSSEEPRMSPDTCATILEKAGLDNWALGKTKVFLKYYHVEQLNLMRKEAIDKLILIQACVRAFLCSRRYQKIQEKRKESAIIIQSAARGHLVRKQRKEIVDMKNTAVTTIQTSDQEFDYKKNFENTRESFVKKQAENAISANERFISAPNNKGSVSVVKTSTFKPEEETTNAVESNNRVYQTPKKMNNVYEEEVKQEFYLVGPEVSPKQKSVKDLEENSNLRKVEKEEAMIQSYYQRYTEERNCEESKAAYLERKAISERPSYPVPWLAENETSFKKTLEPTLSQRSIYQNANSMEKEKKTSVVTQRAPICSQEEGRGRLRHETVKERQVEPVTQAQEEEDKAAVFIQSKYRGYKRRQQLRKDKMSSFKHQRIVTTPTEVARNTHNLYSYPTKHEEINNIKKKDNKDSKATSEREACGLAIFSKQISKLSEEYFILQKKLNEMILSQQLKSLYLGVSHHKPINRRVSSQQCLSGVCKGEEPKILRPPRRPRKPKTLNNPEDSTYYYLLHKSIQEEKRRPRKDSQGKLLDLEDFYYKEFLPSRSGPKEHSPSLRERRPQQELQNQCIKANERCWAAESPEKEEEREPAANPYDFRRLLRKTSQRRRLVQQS
T13 sequence (Q92918 whole entry): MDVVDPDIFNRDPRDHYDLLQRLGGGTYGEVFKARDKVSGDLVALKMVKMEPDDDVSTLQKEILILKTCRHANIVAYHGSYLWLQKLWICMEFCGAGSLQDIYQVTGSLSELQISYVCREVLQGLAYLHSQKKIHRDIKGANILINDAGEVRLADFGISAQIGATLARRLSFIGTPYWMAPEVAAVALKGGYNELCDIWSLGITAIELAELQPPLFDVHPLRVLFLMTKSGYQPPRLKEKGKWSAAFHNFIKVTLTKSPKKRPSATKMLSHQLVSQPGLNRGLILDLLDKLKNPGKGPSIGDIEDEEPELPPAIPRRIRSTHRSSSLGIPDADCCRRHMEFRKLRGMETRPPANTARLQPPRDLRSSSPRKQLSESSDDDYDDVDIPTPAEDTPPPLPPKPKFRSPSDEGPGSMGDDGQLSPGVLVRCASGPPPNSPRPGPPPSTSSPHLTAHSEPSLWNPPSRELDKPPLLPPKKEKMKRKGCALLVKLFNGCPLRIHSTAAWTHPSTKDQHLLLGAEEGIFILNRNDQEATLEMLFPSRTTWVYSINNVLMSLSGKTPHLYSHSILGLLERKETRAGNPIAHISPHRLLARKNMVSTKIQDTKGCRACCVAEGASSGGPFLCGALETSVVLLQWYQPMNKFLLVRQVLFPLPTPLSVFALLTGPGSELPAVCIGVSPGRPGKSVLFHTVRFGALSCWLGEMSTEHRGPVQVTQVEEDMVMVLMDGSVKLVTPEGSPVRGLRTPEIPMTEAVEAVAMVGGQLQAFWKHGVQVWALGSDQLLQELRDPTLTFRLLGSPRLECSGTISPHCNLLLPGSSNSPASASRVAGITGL
T28 sequence (P10721 26-976 Y823D): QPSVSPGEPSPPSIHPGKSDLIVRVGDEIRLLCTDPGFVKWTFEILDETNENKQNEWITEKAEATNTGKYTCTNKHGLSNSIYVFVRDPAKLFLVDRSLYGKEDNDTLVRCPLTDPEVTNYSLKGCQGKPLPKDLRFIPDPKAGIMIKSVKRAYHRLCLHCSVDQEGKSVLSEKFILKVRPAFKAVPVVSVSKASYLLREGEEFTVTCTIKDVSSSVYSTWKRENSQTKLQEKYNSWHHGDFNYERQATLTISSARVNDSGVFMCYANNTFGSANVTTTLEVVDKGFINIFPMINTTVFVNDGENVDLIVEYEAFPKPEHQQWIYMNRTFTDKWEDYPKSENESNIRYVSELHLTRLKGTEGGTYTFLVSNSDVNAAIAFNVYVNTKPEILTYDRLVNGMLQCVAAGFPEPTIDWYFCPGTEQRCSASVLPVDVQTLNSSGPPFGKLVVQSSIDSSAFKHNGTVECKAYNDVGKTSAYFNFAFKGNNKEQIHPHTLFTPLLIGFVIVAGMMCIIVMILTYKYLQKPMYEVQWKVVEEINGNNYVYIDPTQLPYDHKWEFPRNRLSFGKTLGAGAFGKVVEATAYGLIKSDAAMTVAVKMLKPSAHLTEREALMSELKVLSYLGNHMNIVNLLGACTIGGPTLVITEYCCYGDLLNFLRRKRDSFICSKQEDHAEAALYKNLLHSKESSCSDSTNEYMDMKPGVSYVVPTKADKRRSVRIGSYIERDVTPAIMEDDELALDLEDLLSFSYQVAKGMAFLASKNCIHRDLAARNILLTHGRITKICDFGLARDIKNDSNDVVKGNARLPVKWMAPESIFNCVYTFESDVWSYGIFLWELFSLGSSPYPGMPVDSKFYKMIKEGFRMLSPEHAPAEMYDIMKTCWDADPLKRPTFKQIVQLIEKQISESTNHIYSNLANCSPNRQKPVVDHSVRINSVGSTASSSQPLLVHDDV
T15 sequence (P30291 whole entry): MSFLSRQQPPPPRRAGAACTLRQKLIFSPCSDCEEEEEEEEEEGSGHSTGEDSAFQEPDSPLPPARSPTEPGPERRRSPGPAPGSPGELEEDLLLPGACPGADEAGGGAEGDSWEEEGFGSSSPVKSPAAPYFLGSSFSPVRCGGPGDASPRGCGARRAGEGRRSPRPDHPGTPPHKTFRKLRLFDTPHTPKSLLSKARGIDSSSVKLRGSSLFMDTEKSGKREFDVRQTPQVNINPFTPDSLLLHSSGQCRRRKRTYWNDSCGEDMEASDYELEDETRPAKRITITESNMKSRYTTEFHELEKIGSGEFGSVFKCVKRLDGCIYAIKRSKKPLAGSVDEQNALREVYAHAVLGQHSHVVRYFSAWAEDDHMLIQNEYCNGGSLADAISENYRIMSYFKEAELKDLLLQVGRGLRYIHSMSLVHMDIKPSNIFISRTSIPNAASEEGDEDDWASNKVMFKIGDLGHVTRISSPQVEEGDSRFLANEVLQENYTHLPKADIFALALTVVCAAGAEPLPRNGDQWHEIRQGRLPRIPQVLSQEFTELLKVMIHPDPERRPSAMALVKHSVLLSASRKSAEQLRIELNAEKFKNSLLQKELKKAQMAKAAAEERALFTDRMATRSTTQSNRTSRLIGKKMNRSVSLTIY
T37 sequence (P10721 26-976 V559D/T670I): as the sequence (P10721 26-976 Y823D) above, with V534D, T645I, D798Y counted along it

**Q.** Which results are given for `NS(=O)(=O)c1ccc(Nc2ncc3cc4n(c3n2)C2(CCCCC2)C(=O)NN4)cc1` [INX-315]?
**A.** inhibition at 0.1 µM (MAP3K5 (ASK1)): 10%; inhibition at 0.1 µM (MERTK (cMER) A708S): 14%; inhibition at 0.1 µM (MLK4): -5%; inhibition at 0.1 µM (AXL R499C): 1%; inhibition at 0.1 µM (SLK): 22%; inhibition at 0.1 µM (DYRK2): -4%; inhibition at 0.1 µM (MYO3A (MYO3 alpha)): 6%; inhibition at 0.1 µM (STK33): 5%; inhibition at 0.1 µM (MAPK15 (ERK7)): 87%; inhibition at 0.1 µM (TNK2 (ACK)): 0%; inhibition at 0.1 µM (DDR1): 3%; inhibition at 0.1 µM (TGFBR2): 7%; inhibition at 0.1 µM (MAP4K1 (HPK1)): 17%; inhibition at 0.1 µM (LIMK1): 34%; inhibition at 0.1 µM (WEE1): 4%; inhibition at 0.1 µM (STK38L (NDR2)): 0%; inhibition at 0.1 µM (ANKK1): 2%; inhibition at 0.1 µM (MAP2K6 (MKK6)): -3%; inhibition at 0.1 µM (LATS2): 8%; inhibition at 0.1 µM (VRK2): 2%; inhibition at 0.1 µM (MAP3K14 (NIK)): -2%; inhibition at 0.1 µM (ACVR1 (ALK2) R206H): -1%; inhibition at 0.1 µM (RET M918T): 42%; inhibition at 0.1 µM (RAF1 (cRAF) Y340D Y341D): -2%; inhibition at 0.1 µM (RIPK2): -1%; inhibition at 0.1 µM (TLK2): 13%; inhibition at 0.1 µM (ABL1 Q252H): 19%; inhibition at 0.1 µM (KIT Y823D): 31%; inhibition at 0.1 µM (STK32B (YANK2)): 3%; inhibition at 0.1 µM (FGFR1 V561M): 12%; inhibition at 0.1 µM (CDK13/cyclin K): 39%; inhibition at 0.1 µM (EGFR (ErbB1) d746-750): 0%; inhibition at 0.1 µM (MAPK9 (JNK2)): 4%; inhibition at 0.1 µM (STK39 (STLK3)): 14%; inhibition at 0.1 µM (AMPK (A1/B1/G2)): 15%; inhibition at 0.1 µM (BMPR1A (ALK3)): 8%; inhibition at 0.1 µM (KIT V559D T670I): 16%
